We go through five compounds from patent publication US20240067693A1, “POLYPEPTIDES AND USES THEREOF” (MEDIMMUNE LIMITED, priority 2020, published 2024).

Numbered stars: 1 amine (or outer) side, 2 acyl side, 3 side chain; on linkers, the order of the positions; unused ones are H or OH. Bridge positions count the residues as written; N and C are the ends. Square brackets hold non-standard residues; d marks the D form. Side chains are listed from the residue outwards. Peptide text beside a SMILES is read from it. * marks the point of attachment. C18 diacid = O=C(O)CCCCCCCCCCCCCCCCC(=O)*; γGlu = O=C(O)[C@H](CCC(=O)[*:2])N[*:1]; Dab = NCC[C@H](N)C(=O)O; AEEA = NCCOCCOCC(=O)O; Aib = CC(C)(N)C(=O)O

The target in assay [1] is T1, human calcitonin receptor (hCTR) (Homo sapiens, UniProt P30988).
T1 construct: expressed in transfected cells
T1 sequence (P30988 25-474): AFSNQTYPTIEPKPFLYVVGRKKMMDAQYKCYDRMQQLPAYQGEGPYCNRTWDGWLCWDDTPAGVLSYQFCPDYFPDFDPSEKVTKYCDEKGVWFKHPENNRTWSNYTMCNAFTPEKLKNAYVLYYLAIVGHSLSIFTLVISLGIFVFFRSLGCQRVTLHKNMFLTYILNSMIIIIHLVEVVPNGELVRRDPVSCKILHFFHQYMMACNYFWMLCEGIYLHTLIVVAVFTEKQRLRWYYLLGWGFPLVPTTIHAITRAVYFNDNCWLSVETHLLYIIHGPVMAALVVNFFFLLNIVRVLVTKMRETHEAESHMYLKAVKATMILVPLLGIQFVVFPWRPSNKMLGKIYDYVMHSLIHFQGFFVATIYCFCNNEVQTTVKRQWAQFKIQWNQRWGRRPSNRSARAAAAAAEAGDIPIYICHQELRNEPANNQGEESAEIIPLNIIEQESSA
Kind of assay: cAMP production in 1321N1 cells with stable recombinant expression of human calcitonin receptor (hCTR). The class given is cell-based. The following applies: cAMP, 1321N1 cells, assay buffer with 0.1% BSA; read-out: EC50 (pM) hCTR. Summed up: (§1)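 EC50 values come from 4-parameter logistic fits of HTRF cAMP signal, normalised to maximal calcitonin or amylin effect. Peptides were tested in duplicate for 30 min at RT in IBMX-containing (0.5 mM) BSA/HEPES buffer pH 7.4 on stable 1321N1 (human CTR, AMYR3) or HEK (rat CTR, AMYR3) lines.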

Assay [2] concerns the target T2, human amylin receptor (calcitonin receptor co-expressed with receptor activity modifying protein, RAMP3) (hAMYR3) (Homo sapiens, UniProt O60896+P30988).
T2 construct: expressed in transfected cells
T2 sequence (P30988 25-474): T1 sequence (P30988 25-474)
T2 sequence (O60896 24-148 partner): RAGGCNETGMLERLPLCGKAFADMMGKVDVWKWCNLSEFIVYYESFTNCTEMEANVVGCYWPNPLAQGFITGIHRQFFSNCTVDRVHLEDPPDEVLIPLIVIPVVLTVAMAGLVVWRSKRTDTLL
The assay is described as follows: cAMP production in 1321N1 cells with stable recombinant expression of human amylin receptor (hAMYR3). The note with it: for Ratio (selectivity hAMYR vs hCTR, ratio of EC50 values at the two receptors): EC50 hCTR / EC50 hAMYR3; for EC50: cAMP, 1321N1 cells, assay buffer with 0.1% BSA, read-out: EC50 (pM) hAMYR3. The class given is cell-based. Summed up: as §1

For `CC[C@H](C)[C@H](NC(=O)[C@@H]1CCCN1C(=O)CNC(=O)[C@H](Cc1ccccc1)NC(=O)[C@H](CC(N)=O)NC(=O)[C@H](CC(N)=O)NC(=O)[C@H](CO)NC(=O)[C@H](CO)NC(=O)[C@H](Cc1c[nH]cn1)NC(=O)C(C)(C)NC(=O)[C@H](CC(C)C)NC(=O)[C@H](Cc1ccccc1)NC(=O)[C@H](CC(N)=O)NC(=O)[C@H](C)NC(=O)[C@H](CC(C)C)NC(=O)[C@H](CCCNC(=N)N)NC(=O)[C@H](CCC(N)=O)NC(=O)[C@@H](NC(=O)[C@H](C)NC(=O)[C@@H]1CSSC[C@H](NC(=O)[C@H](CCCCN)NC(=O)[C@@H](N)CCCCNC(=O)CC[C@H](NC(=O)CCCCCCCCCCCCCCCCC(=O)O)C(=O)O)C(=O)N[C@@H](CC(N)=O)C(=O)N[C@@H]([C@@H](C)O)C(=O)N[C@@H](C)C(=O)N[C@@H]([C@@H](C)O)C(=O)N1)[C@@H](C)O)C(=O)N[C@@H](CC(C)C)C(=O)N1CCC[C@H]1C(=O)N1CCC[C@H]1C(=O)N[C@H](C(=O)N[C@@H](CC(N)=O)C(=O)N[C@H](C(=O)NCC(=O)N1CCC[C@H]1C(=O)N[C@@H](CC(N)=O)C(=O)N[C@H](C(=O)N[C@@H](Cc1ccc(O)cc1)C(N)=O)[C@@H](C)O)C(C)C)[C@@H](C)O` [Peptide 148] (H-K([γGlu-C18 diacid])KCNTATCATQRLANFL[Aib]HSSNNFGPILPPTNVGPNTY-NH2; disulfide 3-8), in assay [1], the EC50 is 728 pM. Further, in assay [2], the “Ratio (selectivity hAMYR vs hCTR, ratio of EC50 values at the two receptors)” value worked out at 3.8 and the EC50 came to 191 pM.
The corresponding values for `CC[C@H](C)[C@H](NC(=O)[C@@H]1CCCN1C(=O)CNC(=O)[C@H](Cc1ccccc1)NC(=O)[C@H](CC(N)=O)NC(=O)[C@H](CCN)NC(=O)[C@H](CO)NC(=O)[C@H](CO)NC(=O)[C@H](Cc1c[nH]cn1)NC(=O)C(C)(C)NC(=O)[C@H](CC(C)C)NC(=O)[C@H](Cc1ccccc1)NC(=O)[C@H](CC(N)=O)NC(=O)[C@H](C)NC(=O)[C@H](CC(C)C)NC(=O)[C@H](CCCNC(=N)N)NC(=O)[C@H](CCC(N)=O)NC(=O)[C@@H](NC(=O)[C@H](C)NC(=O)[C@@H]1CSSC[C@H](NC(=O)[C@@H](N)CCCCNC(=O)CC[C@H](NC(=O)CCCCCCCCCCCCCCCCC(=O)O)C(=O)O)C(=O)N[C@@H](CC(N)=O)C(=O)N[C@@H]([C@@H](C)O)C(=O)N[C@@H](C)C(=O)N[C@@H]([C@@H](C)O)C(=O)N1)[C@@H](C)O)C(=O)N[C@@H](CC(C)C)C(=O)N1CCC[C@H]1C(=O)N1CCC[C@H]1C(=O)N[C@H](C(=O)N[C@@H](CC(N)=O)C(=O)N[C@H](C(=O)NCC(=O)N[C@@H](CO)C(=O)N[C@@H](CC(N)=O)C(=O)N[C@H](C(=O)N[C@@H](Cc1ccc(O)cc1)C(N)=O)[C@@H](C)O)C(C)C)[C@@H](C)O` [Peptide 150, K(γE-C18diacid)[CNTATC]ATQRLANFL(Aib)HSS(Dab)NFGPILPPTNVGSNTY-amide] (H-K([γGlu-C18 diacid])CNTATCATQRLANFL[Aib]HSS[Dab]NFGPILPPTNVGSNTY-NH2; disulfide 2-7; N-terminus assumed) are 4180 pM, 23.4 and 179 pM.
Consider `CC[C@H](C)[C@H](NC(=O)[C@@H]1CCCN1C(=O)CNC(=O)[C@H](Cc1ccccc1)NC(=O)[C@H](CC(N)=O)NC(=O)[C@H](CC(N)=O)NC(=O)[C@H](CO)NC(=O)[C@H](CO)NC(=O)[C@H](Cc1c[nH]cn1)NC(=O)C(C)(C)NC(=O)[C@H](CC(C)C)NC(=O)[C@H](Cc1ccccc1)NC(=O)[C@H](CC(N)=O)NC(=O)[C@H](C)NC(=O)[C@H](CC(C)C)NC(=O)[C@H](CCCNC(=N)N)NC(=O)[C@H](CCC(N)=O)NC(=O)[C@@H](NC(=O)[C@H](C)NC(=O)[C@@H]1CSSC[C@H](NC(=O)[C@@H](N)CCCCNC(=O)CC[C@H](NC(=O)CCCCCCCCCCCCCCCCC(=O)O)C(=O)O)C(=O)N[C@@H](CC(N)=O)C(=O)N[C@@H]([C@@H](C)O)C(=O)N[C@@H](C)C(=O)N[C@@H]([C@@H](C)O)C(=O)N1)[C@@H](C)O)C(=O)N[C@H](CC(C)C)C(=O)N1CCC[C@H]1C(=O)N1CCC[C@H]1C(=O)N[C@H](C(=O)N[C@@H](CC(N)=O)C(=O)N[C@H](C(=O)NCC(=O)N[C@@H](CO)C(=O)N[C@@H](CC(N)=O)C(=O)N[C@H](C(=O)N[C@@H](Cc1ccc(O)cc1)C(N)=O)[C@@H](C)O)C(C)C)[C@@H](C)O` [Peptide 151, K(γE-C18diacid)[CNTATC]ATQRLANFL(Aib)HSSNNFGPI(dL)PPTNVGSNTY-amide] (H-K([γGlu-C18 diacid])CNTATCATQRLANFL[Aib]HSSNNFGPI[dL]PPTNVGSNTY-NH2; disulfide 2-7; N-terminus assumed), for which the values for the EC50 in assay [1] and in assay [2] were 898 pM and 61 pM, respectively. Besides, in assay [2], the “Ratio (selectivity hAMYR vs hCTR, ratio of EC50 values at the two receptors)” value was found to be 14.7.
The like results for `CC[C@H](C)[C@H](NC(=O)[C@@H]1CCCN1C(=O)CNC(=O)[C@H](Cc1ccccc1)NC(=O)[C@H](CC(N)=O)NC(=O)CNC(=O)[C@H](CO)NC(=O)[C@H](CO)NC(=O)[C@H](Cc1c[nH]cn1)NC(=O)C(C)(C)NC(=O)[C@H](CC(C)C)NC(=O)[C@H](Cc1ccccc1)NC(=O)[C@H](CC(N)=O)NC(=O)[C@H](C)NC(=O)[C@H](CC(C)C)NC(=O)[C@H](CCCNC(=N)N)NC(=O)[C@H](CCC(N)=O)NC(=O)[C@@H](NC(=O)[C@H](C)NC(=O)[C@@H]1CSSC[C@H](NC(=O)[C@H](CCCCN)NC(=O)[C@@H](N)CCCCNC(=O)CC[C@H](NC(=O)CCCCCCCCCCCCCCCCC(=O)O)C(=O)O)C(=O)N[C@@H](CC(N)=O)C(=O)N[C@@H]([C@@H](C)O)C(=O)N[C@@H](C)C(=O)N[C@@H]([C@@H](C)O)C(=O)N1)[C@@H](C)O)C(=O)N[C@@H](CC(C)C)C(=O)N1CCC[C@H]1C(=O)N1CCC[C@H]1C(=O)N[C@H](C(=O)N[C@@H](CC(N)=O)C(=O)N[C@H](C(=O)NCC(=O)N[C@@H](CO)C(=O)N[C@@H](CC(N)=O)C(=O)N[C@H](C(=O)N[C@@H](Cc1ccc(O)cc1)C(N)=O)[C@@H](C)O)C(C)C)[C@@H](C)O` [Peptide 154] (H-K([γGlu-C18 diacid])KCNTATCATQRLANFL[Aib]HSSGNFGPILPPTNVGSNTY-NH2; disulfide 3-8; N-terminus assumed) were, in that order, 1540 pM, 574 pM and 2.7.
For “H-K([AEEA-AEEA-γGlu-C18 diacid])GGGKCNTATCATQRLANFLVHSSNNFGPILPPTNVGSNTY-NH2 (disulfide 6-11) [Peptide 7]”, in assay [1], the EC50 came out at 2160 pM. Moreover, in assay [2], the “Ratio (selectivity hAMYR vs hCTR, ratio of EC50 values at the two receptors)” value is 12 and the EC50 was 173 pM.
